Experimental data published in patent US8236785B2, “Method of treating or preventing infertility in a female mammal and pharmaceutical kit for use in such method” (Pantarhei Bioscience B.V., priority 2007, dated 2012).

Columns and labels:
ERα receptor = biological target: T1, ERα receptor (Homo sapiens, UniProt P03372); test: Estrogen receptor affinity; assay type: binding
T1 sequence (P03372 1-595): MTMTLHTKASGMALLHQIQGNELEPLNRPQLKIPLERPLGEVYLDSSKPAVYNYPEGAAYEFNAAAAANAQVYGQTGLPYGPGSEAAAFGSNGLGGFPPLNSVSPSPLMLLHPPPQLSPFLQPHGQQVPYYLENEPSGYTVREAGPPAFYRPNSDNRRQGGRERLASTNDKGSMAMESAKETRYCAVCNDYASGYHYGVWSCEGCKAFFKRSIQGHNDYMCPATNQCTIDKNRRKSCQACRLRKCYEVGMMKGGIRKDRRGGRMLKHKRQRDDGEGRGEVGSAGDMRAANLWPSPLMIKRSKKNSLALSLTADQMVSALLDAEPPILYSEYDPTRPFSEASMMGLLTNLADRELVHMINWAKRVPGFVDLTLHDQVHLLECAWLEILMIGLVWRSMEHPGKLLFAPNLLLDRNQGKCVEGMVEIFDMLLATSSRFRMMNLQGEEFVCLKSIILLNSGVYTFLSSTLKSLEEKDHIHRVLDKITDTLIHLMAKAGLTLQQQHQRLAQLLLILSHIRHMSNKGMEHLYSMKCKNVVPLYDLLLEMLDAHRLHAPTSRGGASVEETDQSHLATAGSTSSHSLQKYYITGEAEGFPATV

premature LH-surge [1] = test: Randomised controlled dose-finding clinical trial of premature LH-surge prevention in COH/IVF, E4 versus ganirelix; assay type: in vivo, women
Description: An open-label, randomised, controlled, dose-finding, multi-centre clinical trial is performed to investigate and compare the efficacy, safety and tolerability of premature LH-surge prevention in women undergoing COH/IVF using either E4 in an oral dosage of 1, 5, 10, 20, 40 or 80 mg per day or a daily subcutaneous injection of 0.25 mg ganirelix. Group size is 30 women, so in total 210 patients participate in the trial. E4/ganirelix treatment is started on day 6 of FSH treatment up to and including the day of hCG administration. Further procedures are similar to example 1.

premature LH-surge [2] = test: Open-label uncontrolled clinical trial of premature LH-surge prevention in women undergoing COH/IVF; assay type: in vivo; conditions: daily oral 40 mg
Description: An open-label, uncontrolled, single centre clinical trial is performed to investigate the efficacy, safety and tolerability of premature LH-surge prevention in 10 women undergoing IVF treatment for infertility by Controlled Ovarian Hyperstimulation (COH), using a daily oral dosage of 40 mg estetrol (E4) from day 6 of FSH treatment up to and including the day of hCG administration to resume meiosis and induce lutëinisation. Oocytes are retrieved 30-38 hours after hCG administration, fertilised in vitro and two days later no more than two embryos are transferred to the uterus of the patient. Standard luteal support is prescribed.
Ultrasonographic monitoring of follicle growth and endometrial thickness are performed during this treatment procedure including extensive and repeated hormonal analysis and measurement of E4 levels extending into the luteal phase after embryo transfer.

ERβ receptor = ERβ receptor (Homo sapiens, UniProt Q92731); test: Estrogen receptor affinity; assay type: binding
Chain of ERβ receptor (Q92731 whole entry): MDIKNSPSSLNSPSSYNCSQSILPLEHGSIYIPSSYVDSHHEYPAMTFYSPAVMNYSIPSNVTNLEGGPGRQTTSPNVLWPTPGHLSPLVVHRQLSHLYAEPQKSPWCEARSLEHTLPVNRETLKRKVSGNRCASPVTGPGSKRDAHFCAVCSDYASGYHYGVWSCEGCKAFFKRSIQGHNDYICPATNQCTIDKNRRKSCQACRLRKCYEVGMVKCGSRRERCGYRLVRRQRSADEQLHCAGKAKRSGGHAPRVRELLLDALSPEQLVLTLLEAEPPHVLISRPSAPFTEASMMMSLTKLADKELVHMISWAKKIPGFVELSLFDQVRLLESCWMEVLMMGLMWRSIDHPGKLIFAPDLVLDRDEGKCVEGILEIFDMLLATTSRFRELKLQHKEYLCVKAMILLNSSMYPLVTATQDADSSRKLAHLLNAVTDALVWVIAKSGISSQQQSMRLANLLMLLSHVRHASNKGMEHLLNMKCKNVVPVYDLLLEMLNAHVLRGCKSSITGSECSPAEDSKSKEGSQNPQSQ

C[C@]12CC[C@@H]3c4ccc(O)cc4CC[C@H]3[C@@H]1[C@@H](O)[C@@H](O)[C@@H]2O [estetrol, 1,3,5 (10)-estratrien-3,15α,16α,17β-tetrol]
affinity for the ERα receptor (ERα receptor): relatively high affinity
prevention of premature LH-surges compared with ganirelix (premature LH-surge [1]; higher oral dosages vs daily subcutaneous 0.25 mg ganirelix): equally effective to parenteral ganirelix
prevention of premature LH-surges (premature LH-surge [1]; oral 1, 5, 10, 20, 40 or 80 mg per day): dose dependent prevention of premature LH-surges
tolerability / side-effects (premature LH-surge [1]; oral 1-80 mg per day): well tolerated and without significant side-effects
vital pregnancy rates compared with ganirelix (premature LH-surge [1]; oral E4 vs daily subcutaneous 0.25 mg ganirelix): trend to be superior to ganirelix treated patients
tolerability / side-effects (premature LH-surge [2]): well tolerated without significant side-effects
prevention of a premature LH-surge (premature LH-surge [2]; from day 6 of FSH treatment up to and including day of hCG, 10 women): efficacious in preventing a premature LH-surge
vital pregnancies (premature LH-surge [2]; COH/IVF with embryo transfer): Vital pregnancies occur
affinity for the ERβ receptor (ERβ receptor): relatively low affinity
